Experimental data reported in ChEMBL document CHEMBL1150547, “-Phenoxyphenylacetic acid derived angiotensin II antagonists with low nanomolar AT1/AT2 receptor subtype affinity (Part II)” (Bioorg Med Chem Lett, 1995).

Experiments:
[1] = molecular target: T1, Type-2 angiotensin II receptor (Rattus norvegicus, UniProt P35351); experiment: Tested for its ability to displace the specific binding ligand [125I]-Sar 1,lle8-AlI from rat midbrain membrane (AT2 receptor); format: tissue-based
T1 sequence (P35351 whole entry): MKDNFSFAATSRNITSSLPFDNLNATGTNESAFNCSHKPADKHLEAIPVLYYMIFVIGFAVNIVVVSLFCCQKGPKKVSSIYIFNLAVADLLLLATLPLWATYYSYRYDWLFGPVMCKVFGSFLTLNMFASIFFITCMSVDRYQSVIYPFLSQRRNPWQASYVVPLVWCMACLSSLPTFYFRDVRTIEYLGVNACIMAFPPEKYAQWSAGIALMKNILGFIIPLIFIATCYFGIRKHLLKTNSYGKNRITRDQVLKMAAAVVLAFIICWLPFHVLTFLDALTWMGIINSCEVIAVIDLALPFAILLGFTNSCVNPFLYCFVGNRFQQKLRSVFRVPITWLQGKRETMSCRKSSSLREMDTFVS

[2] = molecular target: T2, Type-1 angiotensin II receptor (Oryctolagus cuniculus, UniProt P34976); experiment: Tested for its ability to displace the specific binding ligand [125I]-Sar 1,lle8-AlI from rabbit aortic membrane (AT1 receptor)
T2 sequence (P34976 whole entry): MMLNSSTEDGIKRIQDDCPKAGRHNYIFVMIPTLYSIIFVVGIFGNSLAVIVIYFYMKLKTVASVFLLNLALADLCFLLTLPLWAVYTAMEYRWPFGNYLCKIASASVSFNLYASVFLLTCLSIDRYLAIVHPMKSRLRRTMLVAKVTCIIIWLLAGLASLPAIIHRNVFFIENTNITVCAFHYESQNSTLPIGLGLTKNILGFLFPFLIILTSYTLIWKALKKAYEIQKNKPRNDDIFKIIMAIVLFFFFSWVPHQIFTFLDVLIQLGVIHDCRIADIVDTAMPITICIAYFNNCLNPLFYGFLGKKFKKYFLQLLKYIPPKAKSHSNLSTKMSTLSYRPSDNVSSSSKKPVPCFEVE

Row | Compound | IC50 [1] [nM] | IC50 [2] [nM]
1 | CCOc1cc(Cn2c(CC)nc3c(C)cc(C)nc32)ccc1OC(C(=O)O)c1ccccc1 (centres undefined) | 1200 | 140
2 | CCc1nc2c(C)cc(C)nc2n1Cc1ccc(OC(C(=O)O)c2ccccc2C)c(Cl)c1 (centres undefined) | 1700 | 3.4
3 | CCc1nc2c(C)cc(C)nc2n1Cc1ccc(OC(C(=O)O)c2ccccc2C)cc1 (centres undefined) | 5200 | 6
4 | CCc1nc2c(C)cc(C)nc2n1Cc1cc(Cl)c(OC(C(=O)O)c2ccccc2)c(OC)c1 (centres undefined) | 7800 | 16
5 | CCCCc1nc2ccccc2n1Cc1ccc(OC(C(=O)O)c2ccccc2)cc1 (centres undefined) | 2000 | 93
6 | CCc1nc2c(C)cc(C)nc2n1Cc1ccc(OC(C(=O)O)c2ccccc2)cc1 (centres undefined) | 2000 | 29
7 | CCCc1cc(Cn2c(CC)nc3c(C)cc(C)nc32)ccc1OC(C(=O)O)c1ccccc1 (centres undefined) | 47 | 11
8 | C=CCc1cc(Cn2c(CC)nc3c(C)cc(C)nc32)cc(Cl)c1OC(C(=O)O)c1ccccc1 (centres undefined) | 760 | 2.2
9 | CCc1nc2c(C)cc(C)nc2n1Cc1ccc(OC(C(=O)O)c2ccccc2)c(C)c1 (centres undefined) | 940 | 14
10 | CCc1nc2c(C)cc(C)nc2n1Cc1ccc(OC(C(=O)O)c2ccccc2)c(C(C)(C)C)c1 (centres undefined) | 300 | 50
11 | CCCc1cc(Cn2c(CC)nc3c(C)cc(C)nc32)ccc1OC(C(=O)O)c1ccccc1C (centres undefined) | 2400 | 11
12 | CCc1nc2c(C)cc(C)nc2n1Cc1ccc(OC(C(=O)O)c2ccccc2)c(OC)c1 (centres undefined) | 2900 | 170
13 | CCCCc1cc(Cn2c(CC)nc3c(C)cc(C)nc32)ccc1OC(C(=O)O)c1ccccc1 (centres undefined) | 140 | 12
14 | CCc1nc2c(C)cc(C)nc2n1Cc1ccc(OC(C(=O)O)c2ccccc2)c(Cl)c1 (centres undefined) | 720 | 15
15 | CCCc1cc(Cn2c(CC)nc3c(C)cc(C)nc32)ccc1OC(C(=O)O)c1ccccc1Cl (centres undefined) | > 1000 | 8
16 | CCc1nc2c(C)cc(C)nc2n1Cc1ccc(OC(C(=O)O)c2ccccc2)c(C(C)C)c1 (centres undefined) | 3300 | 30
17 | CCc1nc2c(C)cc(C)nc2n1Cc1ccc(OC(C(=O)O)c2ccccc2Cl)cc1 (centres undefined) | 15000 | 10
18 | CCCCc1nc2ccc(C)cc2c(=O)n1Cc1ccc(OC(C(=O)O)c2ccccc2)cc1 (centres undefined) | 760 | 260
19 | CCCc1nc2c(C)ccnc2n1Cc1ccc(OC(C(=O)O)c2ccccc2)cc1 (centres undefined) | 3400 | 65
20 | CCc1nc2c(C)cc(C)nc2n1Cc1ccc(OC(C(=O)O)c2ccccc2)c(C(=O)c2ccccc2)c1 (centres undefined) | 60 | 120
21 | C=CCc1cc(Cn2c(CC)nc3c(C)cc(C)nc32)ccc1OC(C(=O)O)c1ccccc1 (centres undefined) | 270 | 20
22 | CCc1nc2c(C)cc(C)nc2n1Cc1ccc(OC(C(=O)O)c2ccccc2)c(C(C)=O)c1 (centres undefined) | 610 | 62
23 | CCc1cc(Cn2c(CC)nc3c(C)cc(C)nc32)ccc1OC(C(=O)O)c1ccccc1 (centres undefined) | 410 | 12
24 | CCCc1cc(Cn2c(CC)nc3c(C)cc(C)nc32)ccc1OC(C(=O)O)c1ccccc1OC (centres undefined) | 1200 | 9.5
25 | CCc1nc2c(C)cc(C)nc2n1Cc1cc(Cl)c(OC(C(=O)O)c2ccccc2)c(Cl)c1 (centres undefined) | 9000 | 21
26 | CCc1nc2c(C)cc(C)nn2c1Cc1ccc(OC(C(=O)O)c2ccccc2)cc1 (centres undefined) | 3000 | 69
27 | CCc1nc2c(C)cc(C)nc2n1Cc1ccc(OC(C(=O)O)c2ccccc2)c(Cc2ccccc2)c1 (centres undefined) | 800 | 95
